From publication PMC12406203 (Journal of Medicinal Chemistry, 2025)

How the values were obtained:
Assay in all cases: KINOMEscan
Format in all cases: binding
AURKA = molecular target: T1, AURKA (Homo sapiens, UniProt O14965)
T1 construct: purchased Eurofins DiscoverX, LLC; host or cells: E. coli BL21-derived (T7 phage) or HEK-293
T1 sequence (O14965 1-403): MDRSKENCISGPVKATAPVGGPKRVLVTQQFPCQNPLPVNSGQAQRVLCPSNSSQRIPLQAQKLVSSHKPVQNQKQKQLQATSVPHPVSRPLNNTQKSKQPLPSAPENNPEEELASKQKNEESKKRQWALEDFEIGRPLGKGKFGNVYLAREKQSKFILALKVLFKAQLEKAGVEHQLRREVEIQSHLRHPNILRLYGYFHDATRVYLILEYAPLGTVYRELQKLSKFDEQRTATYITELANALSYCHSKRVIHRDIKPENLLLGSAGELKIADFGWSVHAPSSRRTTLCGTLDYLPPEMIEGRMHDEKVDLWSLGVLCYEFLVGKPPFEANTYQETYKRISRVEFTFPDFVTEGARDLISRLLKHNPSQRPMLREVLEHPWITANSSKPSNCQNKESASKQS
Description: (§1) The kinase inhibition profile of compounds 94 and 95 was assessed against 103 protein kinases by Eurofins DiscoverX, LLC., using the KINOMEscan assay. Kinase-tagged T7 phage strains were grown in parallel in 24-well blocks in an E. coli host derived from the BL21 strain. E. coli were grown to log-phase and infected with T7 phage from a frozen stock (multiplicity of infection = 0.4) and incubated with shaking at 32 °C until lysis (90–150 min). The lysates were centrifuged (6000g) and filtered (0.2 μm) to remove cell debris. The remaining kinases were produced in HEK-293 cells and subsequently tagged with DNA for qPCR detection. […] The liganded beads were blocked with excess biotin and washed with blocking buffer (SeaBlock (Pierce), 1% BSA, 0.05% Tween 20, 1 mM DTT) to remove unbound ligand and to reduce nonspecific phage binding. […] Test compounds were prepared as 100× stocks in 100% DMSO and directly diluted into the assay. All reactions were performed in polypropylene 384-well plates in a final volume of 0.02 mL. […] The kinase concentration in the eluates was measured by qPCR.
(§2) The compound(s) were screened at the concentration(s) requested, and results for primary screen binding interactions are reported as RA (%), where lower numbers indicate stronger hits in the matrix. RA=(testcompoundsignal−PCsignal/NCsignal−PCsignal)×100

ERBB2 = molecular target: T2, ERBB2 (Homo sapiens, UniProt P04626)
T2 construct: purchased Eurofins DiscoverX, LLC; host or cells: E. coli (T7 phage) or HEK-293
T2 sequence (P04626 23-1255): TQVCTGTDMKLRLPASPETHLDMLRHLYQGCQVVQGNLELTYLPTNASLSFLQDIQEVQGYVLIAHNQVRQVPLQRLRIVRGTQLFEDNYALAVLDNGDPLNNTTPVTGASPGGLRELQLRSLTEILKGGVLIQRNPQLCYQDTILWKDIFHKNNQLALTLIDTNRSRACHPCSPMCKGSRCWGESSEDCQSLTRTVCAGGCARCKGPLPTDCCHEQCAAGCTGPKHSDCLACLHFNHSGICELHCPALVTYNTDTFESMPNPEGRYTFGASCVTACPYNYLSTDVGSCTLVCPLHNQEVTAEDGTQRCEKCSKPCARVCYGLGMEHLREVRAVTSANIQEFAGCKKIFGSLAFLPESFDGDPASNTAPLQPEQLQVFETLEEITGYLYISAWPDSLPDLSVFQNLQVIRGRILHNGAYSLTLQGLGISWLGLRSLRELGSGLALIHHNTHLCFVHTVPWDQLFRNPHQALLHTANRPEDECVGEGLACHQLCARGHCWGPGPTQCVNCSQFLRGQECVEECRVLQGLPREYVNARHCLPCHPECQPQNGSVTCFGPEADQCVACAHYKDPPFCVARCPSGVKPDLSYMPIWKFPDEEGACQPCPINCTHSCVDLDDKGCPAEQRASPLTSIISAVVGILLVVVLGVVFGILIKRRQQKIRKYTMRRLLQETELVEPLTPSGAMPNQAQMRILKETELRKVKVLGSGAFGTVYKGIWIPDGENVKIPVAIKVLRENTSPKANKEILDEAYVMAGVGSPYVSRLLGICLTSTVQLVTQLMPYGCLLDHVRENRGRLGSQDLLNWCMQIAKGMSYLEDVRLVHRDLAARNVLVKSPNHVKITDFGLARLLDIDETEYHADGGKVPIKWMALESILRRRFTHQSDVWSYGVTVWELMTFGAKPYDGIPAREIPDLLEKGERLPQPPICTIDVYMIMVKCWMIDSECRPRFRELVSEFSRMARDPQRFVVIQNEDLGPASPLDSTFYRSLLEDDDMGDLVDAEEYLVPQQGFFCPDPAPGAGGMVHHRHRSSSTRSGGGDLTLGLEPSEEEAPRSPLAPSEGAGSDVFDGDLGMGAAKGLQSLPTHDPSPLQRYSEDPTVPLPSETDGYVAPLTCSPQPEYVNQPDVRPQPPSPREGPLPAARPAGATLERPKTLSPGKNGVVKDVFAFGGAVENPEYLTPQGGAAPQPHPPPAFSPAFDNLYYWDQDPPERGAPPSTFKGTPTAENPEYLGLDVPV
Description: as §1, §2

NLK = molecular target: T3, NLK (Homo sapiens, UniProt Q9UBE8)
T3 construct: purchased Eurofins DiscoverX, LLC; host or cells: E. coli (BL21-derived, T7 phage) or HEK-293
T3 sequence (Q9UBE8 1-527): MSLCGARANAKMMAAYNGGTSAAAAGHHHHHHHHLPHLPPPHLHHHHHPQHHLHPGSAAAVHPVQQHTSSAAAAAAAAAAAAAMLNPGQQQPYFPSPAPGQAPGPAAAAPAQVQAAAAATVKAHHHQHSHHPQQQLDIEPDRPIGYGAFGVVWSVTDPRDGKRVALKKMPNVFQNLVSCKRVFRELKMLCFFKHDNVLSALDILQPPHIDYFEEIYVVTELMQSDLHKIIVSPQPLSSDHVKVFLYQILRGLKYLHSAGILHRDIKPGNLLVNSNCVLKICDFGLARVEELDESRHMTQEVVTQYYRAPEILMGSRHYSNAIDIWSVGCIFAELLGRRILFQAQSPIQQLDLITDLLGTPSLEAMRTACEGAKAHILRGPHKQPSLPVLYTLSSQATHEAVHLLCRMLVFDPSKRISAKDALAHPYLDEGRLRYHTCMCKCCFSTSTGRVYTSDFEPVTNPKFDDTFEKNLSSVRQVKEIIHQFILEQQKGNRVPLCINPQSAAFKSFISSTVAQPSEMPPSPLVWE
Description: as §1, §2

PDGFRB = molecular target: T4, PDGFRB (Homo sapiens, UniProt P09619)
T4 construct: purchased Eurofins DiscoverX, LLC; host or cells: E. coli BL21-derived host (T7 phage) or HEK-293
T4 sequence (P09619 33-1106): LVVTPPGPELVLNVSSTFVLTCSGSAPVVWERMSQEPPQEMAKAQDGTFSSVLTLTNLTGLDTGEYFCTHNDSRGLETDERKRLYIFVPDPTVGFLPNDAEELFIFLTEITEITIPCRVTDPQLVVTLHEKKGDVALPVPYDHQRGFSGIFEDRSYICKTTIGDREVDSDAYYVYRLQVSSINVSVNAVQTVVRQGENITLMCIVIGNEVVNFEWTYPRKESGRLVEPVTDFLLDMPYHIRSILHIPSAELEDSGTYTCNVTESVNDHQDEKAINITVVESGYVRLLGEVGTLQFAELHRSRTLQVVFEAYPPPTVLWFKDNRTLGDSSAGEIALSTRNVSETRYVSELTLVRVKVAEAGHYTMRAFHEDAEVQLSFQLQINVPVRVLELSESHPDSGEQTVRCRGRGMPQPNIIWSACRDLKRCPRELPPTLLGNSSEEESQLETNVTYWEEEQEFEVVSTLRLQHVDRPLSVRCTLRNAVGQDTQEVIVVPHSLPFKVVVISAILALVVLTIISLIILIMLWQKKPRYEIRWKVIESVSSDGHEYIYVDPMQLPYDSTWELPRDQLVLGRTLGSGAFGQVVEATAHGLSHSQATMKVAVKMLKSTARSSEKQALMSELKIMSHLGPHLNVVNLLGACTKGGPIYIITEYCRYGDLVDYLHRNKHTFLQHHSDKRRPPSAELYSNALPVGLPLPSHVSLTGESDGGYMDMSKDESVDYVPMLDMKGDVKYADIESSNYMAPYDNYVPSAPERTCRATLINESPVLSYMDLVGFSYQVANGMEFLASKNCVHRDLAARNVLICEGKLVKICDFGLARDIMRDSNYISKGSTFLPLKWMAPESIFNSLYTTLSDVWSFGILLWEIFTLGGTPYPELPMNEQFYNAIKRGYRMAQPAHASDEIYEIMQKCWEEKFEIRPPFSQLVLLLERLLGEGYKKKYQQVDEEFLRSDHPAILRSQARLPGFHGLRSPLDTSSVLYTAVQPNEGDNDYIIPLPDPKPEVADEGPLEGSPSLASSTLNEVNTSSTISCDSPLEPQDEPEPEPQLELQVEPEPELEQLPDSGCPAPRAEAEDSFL
Description: as §1, §2

PDPK1 = molecular target: T5, PDPK1 (Homo sapiens, UniProt O15530)
T5 construct: purchased Eurofins DiscoverX, LLC; host or cells: E. coli BL21-derived host (T7 phage) or HEK-293
T5 sequence (O15530 1-556): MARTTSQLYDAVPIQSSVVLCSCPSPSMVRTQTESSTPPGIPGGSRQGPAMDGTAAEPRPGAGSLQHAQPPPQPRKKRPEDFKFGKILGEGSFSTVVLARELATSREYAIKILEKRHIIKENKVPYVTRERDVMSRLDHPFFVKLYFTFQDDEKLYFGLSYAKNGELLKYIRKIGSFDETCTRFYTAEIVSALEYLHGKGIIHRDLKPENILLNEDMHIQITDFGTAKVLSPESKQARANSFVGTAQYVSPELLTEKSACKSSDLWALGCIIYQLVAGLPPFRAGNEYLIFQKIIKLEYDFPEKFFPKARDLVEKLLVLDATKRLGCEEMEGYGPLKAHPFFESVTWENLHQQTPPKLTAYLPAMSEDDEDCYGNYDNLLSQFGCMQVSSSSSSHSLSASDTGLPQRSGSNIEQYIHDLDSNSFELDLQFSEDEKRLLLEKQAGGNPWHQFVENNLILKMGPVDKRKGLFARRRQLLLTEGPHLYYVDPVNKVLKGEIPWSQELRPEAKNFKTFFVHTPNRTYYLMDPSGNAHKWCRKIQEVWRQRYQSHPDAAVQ
Description: as §1, §2

ROCK2 = molecular target: T6, ROCK2 (Homo sapiens, UniProt O75116)
T6 construct: purchased Eurofins DiscoverX, LLC; host or cells: E. coli BL21-derived host (T7 phage) or HEK-293
T6 sequence (O75116 whole entry): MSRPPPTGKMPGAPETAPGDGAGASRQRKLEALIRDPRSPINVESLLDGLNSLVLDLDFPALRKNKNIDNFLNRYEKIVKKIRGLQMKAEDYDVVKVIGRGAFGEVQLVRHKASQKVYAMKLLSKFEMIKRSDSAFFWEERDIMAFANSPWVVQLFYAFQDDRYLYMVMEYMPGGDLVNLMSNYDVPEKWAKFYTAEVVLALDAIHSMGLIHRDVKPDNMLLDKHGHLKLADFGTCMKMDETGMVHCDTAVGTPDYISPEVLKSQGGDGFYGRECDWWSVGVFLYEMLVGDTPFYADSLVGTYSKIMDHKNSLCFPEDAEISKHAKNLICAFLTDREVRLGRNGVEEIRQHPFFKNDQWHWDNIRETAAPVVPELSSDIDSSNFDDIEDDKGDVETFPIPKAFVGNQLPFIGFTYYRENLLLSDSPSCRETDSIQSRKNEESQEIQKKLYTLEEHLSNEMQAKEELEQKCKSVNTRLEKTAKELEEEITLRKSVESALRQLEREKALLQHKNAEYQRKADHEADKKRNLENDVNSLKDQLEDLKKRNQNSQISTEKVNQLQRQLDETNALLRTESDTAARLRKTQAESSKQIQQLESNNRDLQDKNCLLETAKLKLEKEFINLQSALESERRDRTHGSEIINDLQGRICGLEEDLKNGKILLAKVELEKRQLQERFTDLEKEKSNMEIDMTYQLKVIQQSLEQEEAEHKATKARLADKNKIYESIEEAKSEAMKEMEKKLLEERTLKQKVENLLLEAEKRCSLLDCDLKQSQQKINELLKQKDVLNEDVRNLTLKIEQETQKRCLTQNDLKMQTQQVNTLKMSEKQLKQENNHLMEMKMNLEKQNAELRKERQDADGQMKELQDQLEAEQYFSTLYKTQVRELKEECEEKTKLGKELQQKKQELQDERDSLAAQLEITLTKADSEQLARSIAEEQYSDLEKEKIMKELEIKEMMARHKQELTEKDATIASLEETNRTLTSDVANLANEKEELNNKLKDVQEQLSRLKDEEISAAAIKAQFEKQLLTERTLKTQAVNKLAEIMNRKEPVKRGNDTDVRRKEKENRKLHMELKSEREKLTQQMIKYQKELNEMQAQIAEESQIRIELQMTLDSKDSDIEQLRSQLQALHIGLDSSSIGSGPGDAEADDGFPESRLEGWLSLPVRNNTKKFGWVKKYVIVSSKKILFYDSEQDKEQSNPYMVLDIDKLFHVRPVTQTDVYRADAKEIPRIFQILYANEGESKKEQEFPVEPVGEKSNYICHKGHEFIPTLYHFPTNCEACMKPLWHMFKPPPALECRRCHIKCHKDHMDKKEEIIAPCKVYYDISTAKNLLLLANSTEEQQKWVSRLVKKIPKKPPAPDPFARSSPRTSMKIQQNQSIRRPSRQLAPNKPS
Description: as §1, §2

Compound | RA @ 1000nM (AURKA) | RA @ 10000nM (AURKA) | RA @ 1000nM (ERBB2) | RA @ 10000nM (ERBB2) | RA @ 1000nM (NLK) | RA @ 10000nM (NLK) | RA @ 1000nM (PDGFRB) | RA @ 10000nM (PDGFRB) | RA @ 1000nM (PDPK1) | RA @ 10000nM (PDPK1) | RA @ 1000nM (ROCK2) | RA @ 10000nM (ROCK2)
CN(C)CCNC(=O)c1cc2c(cnn2CC2CCCCC2)cc1Cc1ccc(F)cc1F [Compound 95, 1-(Cyclohexylmethyl)-5-(2,4-difluorobenzyl)-N-(2-(dimethylamino)ethyl)-1H-indazole-6-carboxamide] | 95% | 93% | 84% | 78% | 100% | 100% | 100% | 96% | 100% | 87% | 83% | 100%
CC(C)Cn1ncc2cc(Cc3ccc(F)cc3F)c(C(=O)NCCN(C)C)cc21 [Compound 94, 5-(2,4-Difluorobenzyl)-N-(2-(dimethylamino)ethyl)-1-isobutyl-1H-indazole-6-carboxamide] | 96% | 93% | 74% | 81% | 100% | 98% | 100% | 97% | 88% | 74% | 87% | 96%
